According to article PMC10423278, “Delivered complementation in planta (DCIP) enables measurement of peptide-mediated protein delivery efficiency in plants” (Communications Biology, 2023):
No end group written: not given here.

Legend:
[1] = tested on: DCIP expressing N. benthamiana leaves; experiment: Delivered complementation in planta (DCIP), infiltrated leaf discs, confocal imaging of nuclear sfGFP/mCherry; format: cell-based, Nicotiana benthamiana; settings: for DCIP delivery signal, statistical significance vs water infiltration control: N = 6, Kruskal–Wallis/Dunn
Description: The DCIP protocol involves transient expression of DCIP in N. benthamiana. 3 d.p.i., leaves are infiltrated with an aqueous solution of cargo that contains the GFP11 tag. Immediately after infiltration, the infiltrated leaves are either left intact or a leaf disc is excised from the infiltrated area and plated on pH 5.7 ½ MS. After a predetermined incubation time, the leaves are imaged on a confocal laser scanning microscope. For quantitative imaging, the resulting images are then automatically analyzed using Cell Profiler[30] for nuclear sfGFP and mCherry fluorescence (Fig. 1a). A detailed methodology is provided in the “Methods” section.
Three days after agroinfiltration, DCIP-expressing leaves were infiltrated with the treatment solutions. Unless otherwise stated, an 8 mm punch was then excised from the infiltrated area and plated, abaxial side up, onto ½ MS pH 5.7 agar plates. The plates were then left to incubate under ambient conditions for 4–5 h before imaging. For cold temperature treatment, after infiltration with ice-cold solutions of R9-GFP11 and disc excision, the leaf discs were plated onto ice-cold agar and immediately transferred to a 4 °C refrigerator for incubation. After incubation, the agar plates with leaf discs were kept on ice until the moment of imaging. For in situ incubation, leaves were simply infiltrated and the plant was returned to the growing chamber for incubation. All peptides were dissolved in sterile water and all recombinant proteins were dissolved in 10 mM Tris pH 7.4, 10 mM NaCl for infiltration.
Excised leaf discs were imaged on a Zeiss LSM880 laser scanning confocal microscope. Images for semi-quantitative analysis were collected using a ×20/1.0NA Plan-apochromat water immersion objective and larger field-of-views were collected using a ×5 objective. Leaf discs were mounted by sandwiching a droplet of water between the leaf disc and a #1.5 cover glass. BFP, sfGFP, mCherry, and chloroplast autofluorescence images were acquired by excitation with a 405, 488, 561, and 635 nm laser, respectively. The emission bands collected for BFP, sfGFP, mCherry, and autofluorescence were 410–529, 493–550, 578–645, and 652–728 nm, respectively. All images were collected such that the aperture was set to 1 Airy-unit in the mCherry channel. Images and profile plots were prepared for publication using Zen Blue software. Profile plots were smoothed by taking a moving window of three measurements and normalized to the maximum smoothed intensity for each color. For quantification experiments, z-stacks were acquired with the imaging depth set to capture the epidermal layer down to the point where mCherry nuclei could no longer be detected. z-stacks from four fields of view were acquired for every treatment condition. Quantitative image analysis and downstream processing was performed using Cell Profiler 3.0. […] Cell Profiler was then used to quantify the number, mCherry intensity, GFP intensity, and red (mCherry)/green (sfGFP) ratio of the projected nuclei.
Data obtained from Cell Profiler was processed using a script written in Python 3.9. Using the Cell Profiler data, GFP positive nuclei were counted using a Python script by setting a threshold defined as a one-tailed 99% confidence interval above the mean green/red ratio in the untreated control or water infiltration control of each experiment. […]

f-actin = experiment: cytoDCIP delivery-mediated actin labeling (Lifeact/f-actin scaffolding); format: cell-based, Nicotiana benthamiana
Source text: After confirming that recombinant proteins could be efficiently delivered into plant cells with R9 CPP, we asked if delivered proteins could subsequently mediate protein–protein interactions. Being able to mediate protein–protein interactions using delivered proteins could enable new technologies that alter plant physiology. Therefore, in a proof-of-concept experiment, we delivered the 1.9 kDa f-actin binding peptide, Lifeact[50], tagged with GFP11 and R9 (Fig. 6a) into cytoDCIP expressing N. benthamiana leaves. In this scheme, when Lifeact is internalized, GFP11 acts as a scaffold to tether cytoDCIP to actin filaments through the Lifeact/f-Actin interaction. […]
(§1) Excised leaf discs were imaged on a Zeiss LSM880 laser scanning confocal microscope. Images for semi-quantitative analysis were collected using a ×20/1.0NA Plan-apochromat water immersion objective and larger field-of-views were collected using a ×5 objective. […] For quantification experiments, z-stacks were acquired with the imaging depth set to capture the epidermal layer down to the point where mCherry nuclei could no longer be detected. z-stacks from four fields of view were acquired for every treatment condition. Quantitative image analysis and downstream processing was performed using Cell Profiler 3.0. […]

[2] = tested on: cytoDCIP-expressing N. benthamiana leaf; experiment: cytoDCIP nuclear localization of delivered AtWUS; format: cell-based, Nicotiana benthamiana; settings: 140 µM, leaf disc, 6 h
Source text: After establishing the feasibility of using DCIP to assess recombinant protein delivery in intact leaves, we sought to examine R9-mediated delivery of the Arabidopsis plant morphogenic transcription factor, WUSCHEL (AtWUS), in N. benthamiana leaves. AtWUS was chosen as a candidate cargo due to its applications for somatic embryogenesis in plants and its high degree of molecular characterization[54],[55]. […] Because AtWUS is a transcription factor, we also expected to see GFP11-AtWUS-R9 localize to the nucleus without the SV40 NLS of DCIP. To test this, we infiltrated a cytoDCIP-expressing N. benthamiana leaf with 140 µM GFP11-AtWUS-R9. If the delivered AtWUS has active NLS activity, we would expect green fluorescence localized to only the nucleus and excess, uncomplemented mCherry-GFP1-10 to remain in the cytosol. […]
as §1, with “condition.” for “condition. Quantitative image analysis and downstream processing was performed using Cell Profiler 3.0.”

downstream AtWUS genes = experiment: RT-qPCR of direct targets of AtWUS in treated seedlings; format: in vivo, Arabidopsis thaliana; settings: 24 h
Description: The previous results in N. benthamiana motivated us to determine whether or not the delivered AtWUS is transcriptionally active. We treated 12-day-old Arabidopsis seedlings for 24 h with 1 µM GFP11-AtWUS-R9. A. thaliana was chosen as a model species due to the well-characterized AtWUS pathway in A. thaliana. Seedlings were subsequently harvested and subjected to RT-qPCR analysis for six known direct targets of AtWUS (Fig. 7d). […] Ectopic expression of AtWUS downregulates the expression of cell identity markers ARR6, AS2, KAN1/2 and YAB3 by binding directly to their promoters[56],[57], and upregulates the expression of its own negative regulator, CLV3[58]. […] In this second experiment, 3 µM of protein was also used due to apparent batch-to-batch variation of activity and lower purity of the recombinant protein (Supplemental Fig. S12b, c).
Arabidopsis (Col-0) seedlings were grown in 12-well culture plates with 8–10 seedlings per well in 1 mL of 1x MS media supplemented with 0.5% sucrose and 2.5 mM MES, pH 5.7. Seeds were sterilized by washing in 70% ethanol for 30 s followed by a 15-min incubation in 50% bleach supplemented with 0.5% Tween-20 and rinsed 5x with DI water. Sterilized seeds were stratified in plates at 4 °C for 3 days after plating. Seedlings were grown at 22 °C under 16-h photoperiods for 12 days. To treat seedlings, the liquid media in each well was replaced with control and WUSCHEL treatments. Control wells were refreshed with 1 mL of MS growth media. WUSCHEL proteins were prepared for use by dialysis into 10 mM MES pH 5.7 for 2 h before dilution to their final concentration. Treatment wells were refreshed with 1 mL of 1 or 3 μM of protein (R9-GFP11, GFP11-AtWUS-R9, GFP11-AtWUS) dissolved in MS growth media. […]
Total RNA was extracted from Arabidopsis seedlings using an RNeasy Plant Mini Kit (Qiagen). […] Relative gene expression was determined using the ddCt method[80] using SAND1 as the reference gene. Relative gene expression was determined from four biological pools each containing 8–10 seedlings. […]

`CC[C@H](C)[C@H](NC(=O)CNC(=O)[C@H](C)NC(=O)[C@H](C)NC(=O)[C@H](CC(N)=O)NC(=O)[C@@H](NC(=O)[C@H](Cc1ccc(O)cc1)NC(=O)[C@H](CCC(=O)O)NC(=O)[C@H](Cc1c[nH]cn1)NC(=O)[C@H](CC(C)C)NC(=O)[C@@H](NC(=O)[C@H](CCSC)NC(=O)[C@H](Cc1c[nH]cn1)NC(=O)[C@H](CC(=O)O)NC(=O)[C@H](CCCNC(=N)N)NC(=O)[C@H](CO)NC(=O)CNC(=O)[C@H](CO)NC(=O)CNC(=O)[C@H](CC(C)C)NC(=O)[C@H](Cc1ccc(O)cc1)NC(=O)[C@H](CCCCN)NC(=O)[C@H](CC(C)C)NC(=O)[C@@H](NC(=O)[C@H](CCCCN)NC(=O)[C@H](CCCCN)NC(=O)[C@H](Cc1ccccc1)NC(=O)[C@H](CC(C)C)NC(=O)[C@H](CCCCN)NC(=O)[C@@H](N)CCCCN)[C@@H](C)CC)C(C)C)C(C)C)C(=O)N[C@H](C(=O)O)[C@@H](C)O` [BP100-GFP11] was tested, and the “sfGFP complementation observed by confocal imaging (qualitative)” value ([1]; 100 μM peptide, 4–5 h post-infiltration) was “rare instances of successful delivery” and the “DCIP delivery signal, statistical significance vs water infiltration control” value ([1]; 100 μM, 4–5 h) was “no statistically significant signal”.

In the case of `C/C1=C/C(=O)O[C@@H]2C[C@@H](CC[C@H](C)/C=C\CC1)O[C@@](O)([C@@H]1CSC(=O)N1)C2` [LatB, latrunculin B, reference compound], the “actin filaments on cotreatment with LatB” value (f-actin; 25 µM LatB cotreated with GFP11-Lifeact-R9, 6 h) is reported as “no actin filaments were observed”.

In the case of “MGSSHHHHHHENLYFQSNARDHMVLHEYVNAAGITGGGGSGGGGSYFQSNAMGVADLIKKFESISKEEGIGSGSNGNSGSVSRRRRRRRRR* [GFP11-Lifeact-R9]”, the “localization of sfGFP/mCherry signal in cytoDCIP leaves (actin filament labeling)” value (f-actin; 120 µM, leaf discs, 6 h, pavement cells) is reported as “robust labeling of actin filaments”.

With RDHMVLHEYVNAAGIT [GFP11] the “DCIP delivery signal, statistical significance vs water infiltration control” value ([1]; 100 μM, 4–5 h) was “no statistically significant signal”.

In the case of “RKKRRQRRRGSGSRDHMVLHEYVNAAGIT [TAT-GFP11]”, the “delivery efficiencies (percent GFP-positive nuclei)” value ([1]; 100 μM CPP-GFP11 conjugate, 4–5 h, N = 6) is reported as 30–80% and the “delivery efficiency normalized to R9 CPP” value ([1]; 100 μM, 4–5 h, N = 6) is reported as 0.87 times.

B1: GFP11-AtWUS: recombinant AtWUS with GFP11 tag, without R9 fusion, 38.5 kDa (plasmid 1BR9-AtWUSSTOP) (protein, UniProt Q9SB92 1-292, looked up)
Protein WUSCHEL: MEPPQHQHHHHQADQESGNNNNNKSGSGGYTCRQTSTRWTPTTEQIKILKELYYNNAIRSPTADQIQKITARLRQFGKIEGKNVFYWFQNHKARERQKKRFNGTNMTTPSSSPNSVMMAANDHYHPLLHHHHGVPMQRPANSVNVKLNQDHHLYHHNKPYPSFNNGNLNHASSGTECGVVNASNGYMSSHVYGSMEQDCSMNYNNVGGGWANMDHHYSSAPYNFFDRAKPLFGLEGHQEEEECGGDAYLEHRRTLPLFPMHGEDHINGGSGAIWKYGQSEVRPCASLELRLN
modifications: GFP11 tag
With B1 the “nuclear localization of delivered protein in cytoDCIP leaf” value [2] was “possessed nuclear localization activity”, the “CLV3 expression in GFP11-AtWUS-treated plants” value (downstream AtWUS genes; 3 µM) was “CLV3 downregulation” and the “tested AtWUS target genes regulated in an expected manner, first experimental repeat” value (downstream AtWUS genes; 3 µM, six genes, N = 4) was 3/6. For the same molecule, the “tested AtWUS target genes regulated in an expected manner, second experimental repeat” value (downstream AtWUS genes; six genes, N = 4, repeat) was 1/6.
